In US10383880B2 (Reset Therapeutics, Inc., priority 2012, dated 2019):

Test system: Per2-dLuc U2OS reporter cells
Test: Per2 assay for evaluating the potency of test compounds (high-throughput circadian assay)
Assay type: cell-based
Conditions: Homo sapiens, U2OS, stable U2OS reporter cells harboring Per2-dLuc; luminescence monitored over 4-5 days at 35° C.
Experimental: Compounds were screened by using a high-throughput circadian assay system as previously described in Zhang, E. E. et al. Cell, 2009, 139, 199-210. In brief, stable U2OS reporter cells harboring Per2-dLuc were plated at a density of 8,000 cells/well in Corning 96-well, solid white, flat bottom, TC-treated microplates (Corning®), and incubated for 24 hours at 37° C. in the presence of 5% CO2. The cells were then synchronized by serum shock by media exchange to a minimal explant media (10 mM HEPES (pH 7.0), 2% B27, 1×PSG (Invitrogen®), and 1.0 mM beetle luciferin (Promega®)) followed by the addition of the compounds of formula I dissolved in dimethylsulfoxide (0.5% final dimethylsulfoxide concentration). Gene expression was monitored by measuring luminescence (TecanR M200) over 4-5 days at 35° C. The period, amplitude, and phase of the associated circadian rhythms were determined using Multicycle™ software (Actimetrics, Inc). EC50 values of the compounds of formula I were calculated using Graphpad™ (Prism®).

Compound	EC50 [nM]
COCCN(CC(O)Cn1c2ccccc2c2ccccc21)S(C)(=O)=O (stereo not shown) [Compound 30, N-(3-(9H-Carbazol-9-yl)-2-hydroxypropyl)-N-(2-methoxyethyl)methanesulfonamide]	390
Cc1ccc(S(=O)(=O)N(C)c2ccc(N(CC(O)Cn3c4ccccc4c4ccccc43)S(C)(=O)=O)cc2)cc1 (stereo not shown) [Compound 31, N-(4-(N-(3-(9H-Carbazol-9-yl)-2-hydroxypropyl)methylsulfonamido)phenyl)-N,4-dimethylbenzenesulfonamide]	1400
CN(CC(O)Cn1c2ccccc2c2ccccc21)S(C)(=O)=O (stereo not shown) [Compound 32, N-(3-(9H-Carbazol-9-yl)-2-hydroxypropyl)-N-methylmethanesulfonamide]	100
O=S1(=O)CCCCN1CC(O)Cn1c2ccccc2c2ccccc21 (stereo not shown) [Compound 33, N-(3-(9H-Carbazol-9-yl)-2-hydroxypropyl)-1,2-thiazinane 1,1-dioxide]	35
O=S1(=O)c2ccccc2CN1CC(O)Cn1c2ccccc2c2ccccc21 (stereo not shown) [Compound 34, N-(3-(9H-Carbazol-9-yl)-2-hydroxypropyl)-2,3-dihydrobenzo[d]isothiazole 1,1-dioxide]	31
O=S1(=O)Cc2ccccc2CN1CC(O)Cn1c2ccccc2c2ccccc21 (stereo not shown) [Compound 35, N-(3-(9H-Carbazol-9-yl)-2-hydroxypropyl)-3,4-dihydro-1H-benzo[d][1,2]thiazine 2,2-dioxide]	1500
O=S1(=O)Cc2ccccc2N1CC(O)Cn1c2ccccc2c2ccccc21 (stereo not shown) [Compound 36, N-(3-(9H-Carbazol-9-yl)-2-hydroxypropyl)-1,3-dihydrobenzo[c]isothiazole 2,2-dioxide]	539
O=S1(=O)CCc2ccccc2N1CC(O)Cn1c2ccccc2c2ccccc21 (stereo not shown) [Compound 37, N-(3-(9H-Carbazol-9-yl)-2-hydroxypropyl)-3,4-dihydro-1H-benzo[c][1,2]thiazine 2,2-dioxide]	34
O=S1(=O)CCCCN1C[C@@H](O)Cn1c2ccccc2c2ccccc21 [Compound 38, (S)-N-(3-(9H-Carbazol-9-yl)-2-hydroxypropyl)-1,2-thiazinane 1,1-dioxide]	11
O=S1(=O)CCCN1C[C@@H](O)Cn1c2ccccc2c2ccccc21 [Compound 39, (S)-N-(3-(9H-Carbazol-9-yl)-2-hydroxypropyl)isothiazolidine 1,1-dioxide]	21
O=S1(=O)CCCN1C[C@H](O)Cn1c2ccccc2c2ccccc21 [Compound 40, (R)-N-(3-(9H-Carbazol-9-yl)-2-hydroxypropyl)isothiazolidine 1,1-dioxide]	179
O=S1(=O)CCCCN1C[C@H](O)Cn1c2ccccc2c2ccccc21 [Compound 41, (R)-N-(3-(9H-Carbazol-9-yl)-2-hydroxypropyl)-1,2-thiazinane 1,1-dioxide]	343
O=S1(=O)c2ccccc2CCN1CC(O)Cn1c2ccccc2c2ccccc21 (stereo not shown) [Compound 43, N-(3-(9H-Carbazol-9-yl)-2-hydroxypropyl)-3,4-dihydro-2H-benzo[e][1,2]thiazine 1,1-dioxide]	3000
CS(=O)(=O)N(Cc1ccccc1)CC(O)Cn1c2ccccc2c2ccccc21 (stereo not shown) [Compound 44, N-(3-(9H-Carbazol-9-yl)-2-hydroxypropyl)-N-benzylmethanesulfonamide]	8270
CCN(CC(O)Cn1c2ccccc2c2ccccc21)S(C)(=O)=O (stereo not shown) [Compound 45, N-(3-(9H-Carbazol-9-yl)-2-hydroxypropyl)-N-ethylmethanesulfonamide]	398
CC(C)N(CC(O)Cn1c2ccccc2c2ccccc21)S(C)(=O)=O (stereo not shown) [Compound 46, N-(3-(9H-Carbazol-9-yl)-2-hydroxypropyl)-N-isopropylmethanesulfonamide]	100
CS(=O)(=O)N(CC(O)Cn1c2ccccc2c2ccccc21)C1CCCc2ccccc21 (stereo not shown) [Compound 47, N-(3-(9H-Carbazol-9-yl)-2-hydroxypropyl)-N-(1,2,3,4-tetrahydronaphthalen-1-yl)methanesulfonamide]	3360
CS(=O)(=O)N(CC(O)Cn1c2ccccc2c2ccccc21)c1ccc2ccccc2c1 (stereo not shown) [Compound 48, N-(3-(9H-Carbazol-9-yl)-2-hydroxypropyl)-N-(naphthalen-2-yl)methanesulfonamide]	1500
CC(C)CN(CC(O)Cn1c2ccccc2c2ccccc21)S(C)(=O)=O (stereo not shown) [Compound 49, N-(3-(9H-Carbazol-9-yl)-2-hydroxypropyl)-N-isobutylmethanesulfonamide]	100
CS(=O)(=O)N(CC(O)Cn1c2ccccc2c2ccccc21)CC1CCCC1 (stereo not shown) [Compound 50, N-(3-(9H-Carbazol-9-yl)-2-hydroxypropyl)-N-(cyclopentylmethyl)methanesulfonamide]	148

Compound	EC50 [nM]
CS(=O)(=O)N(CC(O)Cn1c2ccccc2c2ccccc21)CC1CCCO1 (stereo not shown) [Compound 51, N-(3-(9H-Carbazol-9-yl)-2-hydroxypropyl)-N-((tetrahydrofuran-2-yl)methyl)methanesulfonamide]	371
CS(=O)(=O)N(CC(O)Cn1c2ccccc2c2ccccc21)CC1CCCCC1 (stereo not shown) [Compound 52, N-(3-(9H-Carbazol-9-yl)-2-hydroxypropyl)-N-(cyclohexylmethyl)methanesulfonamide]	306
CS(=O)(=O)N(CC(O)Cn1c2ccccc2c2ccccc21)CC1CCCCO1 (stereo not shown) [Compound 53, N-(3-(9H-Carbazol-9-yl)-2-hydroxypropyl)-N-((tetrahydro-2H-pyran-2-yl)methyl)methanesulfonamide]	578
CS(=O)(=O)N(CCc1ccccc1)CC(O)Cn1c2ccccc2c2ccccc21 (stereo not shown) [Compound 54, N-(3-(9H-Carbazol-9-yl)-2-hydroxypropyl)-N-phenethylmethanesulfonamide]	824
CS(=O)(=O)CCN(CC(O)Cn1c2ccccc2c2ccccc21)S(C)(=O)=O (stereo not shown) [Compound 55, N-(3-(9H-Carbazol-9-yl)-2-hydroxypropyl)-N-(2-(methylsulfonyl)ethyl)methanesulfonamide]	2310
CS(=O)(=O)N(CC(O)Cn1c2ccccc2c2ccccc21)C1CC1 (stereo not shown) [Compound 56, N-(3-(9H-Carbazol-9-yl)-2-hydroxypropyl)-N-cyclopropylmethanesulfonamide]	128
CS(=O)(=O)N(CC(O)Cn1c2ccccc2c2ccccc21)C1CCC1 (stereo not shown) [Compound 57, N-(3-(9H-Carbazol-9-yl)-2-hydroxypropyl)-N-cyclobutylmethanesulfonamide]	35
CS(=O)(=O)N(CC(O)Cn1c2ccccc2c2ccccc21)C1CCCC1 (stereo not shown) [Compound 58, N-(3-(9H-Carbazol-9-yl)-2-hydroxypropyl)-N-cyclopentylmethanesulfonamide]	150
CC(=O)N1CCC(N(CC(O)Cn2c3ccccc3c3ccccc32)S(C)(=O)=O)CC1 (stereo not shown) [Compound 59, N-(3-(9H-Carbazol-9-yl)-2-hydroxypropyl)-N-(1-acetylpiperidin-4-yl)methanesulfonamide]	9580
CS(=O)(=O)N(Cc1ccc(F)cc1)CC(O)Cn1c2ccccc2c2ccccc21 (stereo not shown) [Compound 60, N-(3-(9H-Carbazol-9-yl)-2-hydroxypropyl)-N-(4-fluorobenzyl)methanesulfonamide]	1220
Cc1ccccc1N(CC(O)Cn1c2ccccc2c2ccccc21)S(C)(=O)=O (stereo not shown) [Compound 62, N-(3-(9H-Carbazol-9-yl)-2-hydroxypropyl)-N-o-tolylmethanesulfonamide]	1330
Cc1cccc(N(CC(O)Cn2c3ccccc3c3ccccc32)S(C)(=O)=O)c1 (stereo not shown) [Compound 63, N-(3-(9H-Carbazol-9-yl)-2-hydroxypropyl)-N-m-tolylmethanesulfonamide]	199
CS(=O)(=O)N(CC(O)Cn1c2ccccc2c2ccccc21)c1cccc(Cl)c1 (stereo not shown) [Compound 64, N-(3-(9H-Carbazol-9-yl)-2-hydroxypropyl)-N-(3-chlorophenyl)methanesulfonamide]	1000
CS(=O)(=O)N(CC(O)Cn1c2ccccc2c2ccccc21)c1ccc2sccc2c1 (stereo not shown) [Compound 65, N-(3-(9H-Carbazol-9-yl)-2-hydroxypropyl)-N-(benzo[b]thiophen-5-yl)methanesulfonamide]	9500
Cn1ccc2ccc(N(CC(O)Cn3c4ccccc4c4ccccc43)S(C)(=O)=O)cc21 (stereo not shown) [Compound 66, N-(3-(9H-Carbazol-9-yl)-2-hydroxypropyl)-N-(1-methyl-1H-indol-6-yl)methanesulfonamide]	9900
CS(=O)(=O)N(Cc1cccc(F)c1)CC(O)Cn1c2ccccc2c2ccccc21 (stereo not shown) [Compound 67, N-(3-(9H-Carbazol-9-yl)-2-hydroxypropyl)-N-(3-fluorobenzyl)methanesulfonamide]	3140
CS(=O)(=O)N(Cc1ccccc1F)CC(O)Cn1c2ccccc2c2ccccc21 (stereo not shown) [Compound 68, N-(3-(9H-Carbazol-9-yl)-2-hydroxypropyl)-N-(2-fluorobenzyl)methanesulfonamide]	1990
CC(CN(CC(O)Cn1c2ccccc2c2ccccc21)S(C)(=O)=O)c1ccccc1 (stereo not shown) [Compound 70, N-(3-(9H-Carbazol-9-yl)-2-hydroxypropyl)-N-(2-phenylpropyl)methanesulfonamide]	8970
CS(=O)(=O)N(CC(O)Cn1c2ccccc2c2ccccc21)C1CCCCC1 (stereo not shown) [Compound 71, N-(3-(9H-Carbazol-9-yl)-2-hydroxypropyl)-N-cyclohexylmethanesulfonamide]	3300
CS(=O)(=O)N(CC(O)Cn1c2ccccc2c2ccccc21)c1cccc(C#N)c1 (stereo not shown) [Compound 72, N-(3-(9H-Carbazol-9-yl)-2-hydroxypropyl)-N-(3-cyanophenyl)methanesulfonamide]	2580
